According to US8802597B2, “Herbicidal pyrimidines” (E I du Pont de Nemours and Company, priority 2003, dated 2014):
Where two headings read alike, the source gives them in different places.

Assays:
Type in all cases: in vivo
[1] = test system: blackgrass (Alopecurus myosuroides); assay: Test B postemergence; conditions: Alopecurus myosuroides, post-emergence, scale 0 to 100 (0 no effect, 100 complete control), read-out: Blackgrass plant response rating
In short: (§1)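 Following sowing, compounds in a surfactant-bearing non-phytotoxic solvent were applied preemergence; emerged plants 2 to 18 cm high got postemergence treatment concurrently. Evaluation: 13 to 15 days later, greenhouse, 0–100 visual scale.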

wild oat (Avena fatua) = assay: Test B postemergence; conditions: Avena fatua, post-emergence, scale 0 to 100 (0 no effect, 100 complete control), read-out: Oat, Wild plant response rating
In short: as §1

[2] = test system: umbrella sedge (Cyperus difformis); assay: Test B flooded paddy test; conditions: Cyperus difformis, Flood, scale 0 to 100, read-out: Plant response rating, Sedge, Umbrella
In short: (§2)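 Visual injury scoring (0 = no effect, 100 = complete control) versus controls made 13 to 15 days after treatment in the greenhouse. Test species were grown in flooded paddy to the 2-leaf stage: rice, barnyardgrass, umbrella sedge, duck salad.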

rice (Oryza sativa) = assay: Test B flooded paddy test; conditions: Oryza sativa, Flood, scale 0 to 100, read-out: Plant response rating, Rice
In short: as §2

[3] = test system: duck salad (Heteranthera limosa); assay: Test B flooded paddy test; conditions: Heteranthera limosa, Flood, scale 0 to 100, read-out: Plant response rating, Ducksalad
In short: as §2

[4] = test system: barnyardgrass (Echinochloa crus-galli); assay: Test B flooded paddy test; conditions: Echinochloa crus-galli, Flood, scale 0 to 100, read-out: Plant response rating, Barnyardgrass
In short: as §2

[5] = test system: lambsquarters (Chenopodium album); assay: Test B pre/postemergence; conditions: Chenopodium album; for pest or weed control at 62 g/ha: 62 g ai/ha; for pest or weed control at 125 g/ha: 125 g ai/ha
In short: as §1

[6] = test system: giant foxtail (Setaria faberii); assay: Test B pre/postemergence; conditions: Setaria faberi; for pest or weed control at 125 g/ha: 125 g ai/ha; for pest or weed control at 62 g/ha: 62 g ai/ha
In short: as §1

[7] = test system: pigweed (Amaranthus retroflexus); assay: Test B pre/postemergence; conditions: Amaranthus retroflexus; for pest or weed control at 62 g/ha: 62 g ai/ha; for pest or weed control at 125 g/ha: 125 g ai/ha
In short: as §1

[8] = test system: barnyardgrass (Echinochloa crus-galli); assay: Test B pre/postemergence; conditions: Echinochloa crus-galli, scale 0 to 100 (0 no effect, 100 complete control); for pest or weed control at 62 g/ha: 62 g ai/ha; for pest or weed control at 125 g/ha: 125 g ai/ha
In short: as §1

[9] = test system: cocklebur (Xanthium strumarium); assay: Test B pre/postemergence; conditions: Xanthium strumarium; for pest or weed control at 125 g/ha: 125 g ai/ha, scale 0 to 100 (0 no effect, 100 complete control)
In short: as §1

[10] = test system: morningglory (Ipomoea coccinea); assay: Test B pre/postemergence; conditions: Ipomoea; for pest or weed control at 62 g/ha: 62 g ai/ha; for pest or weed control at 125 g/ha: 125 g ai/ha
In short: as §1

corn (Zea mays) = assay: Test B pre/postemergence; conditions: Zea mays
In short: as §1

[11] = test system: Surinam grass (Brachiaria decumbens); assay: Test B pre/postemergence; conditions: Urochloa decumbens; for pest or weed control at 125 g/ha: 125 g ai/ha; for pest or weed control at 62 g/ha: 62 g ai/ha
In short: as §1

[12] = test system: velvetleaf (Abutilon theophrasti); assay: Test B pre/postemergence; conditions: Abutilon theophrasti; for pest or weed control at 62 g/ha: 62 g ai/ha; for pest or weed control at 125 g/ha: 125 g ai/ha
In short: as §1

[13] = test system: crabgrass (Digitaria sanguinalis); assay: Test B pre/postemergence; conditions: Digitaria sanguinalis; for pest or weed control at 62 g/ha: 62 g ai/ha; for pest or weed control at 125 g/ha: 125 g ai/ha
In short: as §1

[14] = test system: wheat (Triticum aestivum); assay: Test B pre/postemergence; conditions: Triticum aestivum, scale 0 to 100 (0 no effect, 100 complete control); for plant injury at 62 g/ha: 62 g ai/ha; for plant injury at 125 g/ha: 125 g ai/ha
In short: as §1

[15] = post-emergence, Postemergence, scale 0 to 100 (0 no effect, 100 complete control), read-out: Lambsquarters plant response rating
[16] = post-emergence, Postemergence, scale 0 to 100 (0 no effect, 100 complete control), read-out: Foxtail, Giant plant response rating
[17] = post-emergence, Postemergence, scale 0 to 100 (0 no effect, 100 complete control), read-out: Pigweed plant response rating
[18] = post-emergence, Postemergence, read-out: Barnyardgrass plant response rating
[19] = pre-emergence, Preemergence, read-out: Plant response rating, Barnyardgrass
[20] = post-emergence, Postemergence, scale 0 to 100 (0 no effect, 100 complete control), read-out: Morningglory plant response rating
[21] = post-emergence, Postemergence, scale 0 to 100 (0 no effect, 100 complete control), read-out: Surinam Grass plant response rating
[22] = post-emergence, Postemergence, scale 0 to 100 (0 no effect, 100 complete control), read-out: Velvetleaf plant response rating
[23] = post-emergence, Postemergence, scale 0 to 100 (0 no effect, 100 complete control), read-out: Crabgrass plant response rating
[24] = post-emergence, Postemergence, read-out: Wheat plant response rating
[25] = pre-emergence, Preemergence, read-out: Plant response rating, Wheat

**Q.** What does the source list for `CNc1nc(C2CC2)nc(C(=O)OC)c1Cl` [Compound 79]?
**A.** pest or weed control at 62 g/ha ([1]; 62 g ai/ha): 20%; pest or weed control at 125 g/ha ([1]; 125 g ai/ha): 50%; pest or weed control at 62 g/ha (wild oat (Avena fatua); 62 g ai/ha): 30%; pest or weed control at 125 g/ha (wild oat (Avena fatua); 125 g ai/ha): 40%; pest or weed control at 125 g/ha ([2]; 125 g ai/ha): 0%; pest or weed control at 500 g/ha ([2]; 500 g ai/ha): 0%; plant injury at 125 g/ha (rice (Oryza sativa); 125 g ai/ha): 0%; plant injury at 500 g/ha (rice (Oryza sativa); 500 g ai/ha): 20%; pest or weed control at 125 g/ha ([3]; 125 g ai/ha): 10%; pest or weed control at 500 g/ha ([3]; 500 g ai/ha): 70%; pest or weed control at 125 g/ha ([4]; 125 g ai/ha): 0%; pest or weed control at 500 g/ha ([4]; 500 g ai/ha): 0%; pest or weed control at 62 g/ha [5, 15]: 90%; pest or weed control at 125 g/ha [5, 15]: 100%; pest or weed control at 62 g/ha ([5]; pre-emergence, Preemergence, scale 0 to 100, 0 no effect, 100 complete control, read-out: Plant response rating, Lambsquarters): 90%; pest or weed control at 125 g/ha ([5]; pre-emergence, Preemergence, scale 0 to 100 (0 no effect, 100 complete control), read-out: Plant response rating, Lambsquarters): 90%; pest or weed control at 125 g/ha [6, 16]: 70%; pest or weed control at 62 g/ha [6, 16]: 40%; pest or weed control at 125 g/ha ([6]; pre-emergence, Preemergence, scale 0 to 100 (0 no effect, 100 complete control), read-out: Plant response rating, Foxtail, Giant): 20%; pest or weed control at 62 g/ha ([6]; pre-emergence, Preemergence, scale 0 to 100, 0 no effect, 100 complete control, read-out: Plant response rating, Foxtail, Giant): 0%; pest or weed control at 62 g/ha [7, 17]: 80%; pest or weed control at 125 g/ha [7, 17]: 100%; pest or weed control at 62 g/ha ([7]; pre-emergence, Preemergence, scale 0 to 100, 0 no effect, 100 complete control, read-out: Plant response rating, Pigweed): 80%; pest or weed control at 125 g/ha ([7]; pre-emergence, Preemergence, scale 0 to 100 (0 no effect, 100 complete control), read-out: Plant response rating, Pigweed): 100%; pest or weed control at 62 g/ha [8, 18]: 50%; pest or weed control at 125 g/ha [8, 18]: 80%; pest or weed control at 62 g/ha [8, 19]: 0%; pest or weed control at 125 g/ha [8, 19]: 70%; pest or weed control at 125 g/ha ([9]; post-emergence, Postemergence, read-out: Cocklebur plant response rating): 60%; pest or weed control at 62 g/ha ([9]; pre-emergence, Preemergence, 62 g ai/ha, scale 0 to 100, 0 no effect, 100 complete control, read-out: Plant response rating, Cocklebur): 50%; pest or weed control at 125 g/ha ([9]; pre-emergence, Preemergence, read-out: Plant response rating, Cocklebur): 80%; pest or weed control at 62 g/ha [10, 20]: 90%; pest or weed control at 125 g/ha [10, 20]: 100%; pest or weed control at 62 g/ha ([10]; pre-emergence, Preemergence, scale 0 to 100, 0 no effect, 100 complete control, read-out: Plant response rating, Morningglory): 70%; pest or weed control at 125 g/ha ([10]; pre-emergence, Preemergence, scale 0 to 100 (0 no effect, 100 complete control), read-out: Plant response rating, Morningglory): 90%; plant injury at 62 g/ha (corn (Zea mays); post-emergence, Postemergence, 62 g ai/ha, scale 0 to 100 (0 no effect, 100 complete control), read-out: Corn plant response rating): 20%; plant injury at 125 g/ha (corn (Zea mays); post-emergence, Postemergence, 125 g ai/ha, scale 0 to 100 (0 no effect, 100 complete control), read-out: Corn plant response rating): 60%; Corn plant response rating (crop injury, 0 = no effect, 100 = complete kill) at 62 g/ha (corn (Zea mays); pre-emergence, Preemergence, 62 g ai/ha, scale 0 to 100, 0 no effect, 100 complete control): 30%; Corn plant response rating (crop injury, 0 = no effect, 100 = complete kill) at 125 g/ha (corn (Zea mays); pre-emergence, Preemergence, 125 g ai/ha, scale 0 to 100 (0 no effect, 100 complete control)): 60%; pest or weed control at 125 g/ha [11, 21]: 60%; pest or weed control at 62 g/ha [11, 21]: 20%; pest or weed control at 125 g/ha ([11]; pre-emergence, Preemergence, scale 0 to 100 (0 no effect, 100 complete control), read-out: Plant response rating, Surinam Grass): 0%; pest or weed control at 62 g/ha ([11]; pre-emergence, Preemergence, scale 0 to 100, 0 no effect, 100 complete control, read-out: Plant response rating, Surinam Grass): 0%; pest or weed control at 62 g/ha [12, 22]: 50%; pest or weed control at 125 g/ha [12, 22]: 80%; pest or weed control at 62 g/ha ([12]; pre-emergence, Preemergence, scale 0 to 100, 0 no effect, 100 complete control, read-out: Plant response rating, Velvetleaf): 50%; pest or weed control at 125 g/ha ([12]; pre-emergence, Preemergence, scale 0 to 100 (0 no effect, 100 complete control), read-out: Plant response rating, Velvetleaf): 80%; pest or weed control at 62 g/ha [13, 23]: 30%; pest or weed control at 125 g/ha [13, 23]: 60%; pest or weed control at 62 g/ha ([13]; pre-emergence, Preemergence, scale 0 to 100, 0 no effect, 100 complete control, read-out: Plant response rating, Crabgrass): 0%; pest or weed control at 125 g/ha ([13]; pre-emergence, Preemergence, scale 0 to 100 (0 no effect, 100 complete control), read-out: Plant response rating, Crabgrass): 70%; plant injury at 62 g/ha [14, 24]: 0%; plant injury at 125 g/ha [14, 24]: 40%; plant injury at 62 g/ha [14, 25]: 0%; plant injury at 125 g/ha [14, 25]: 60%
